Assay results reported in the supplement of paper PMC6045584.
± gives the standard deviation of the averaged measurements.

Compound: CCCS(=O)(=O)Nc1ccc(F)c(C(=O)c2c[nH]c3ncc(Cl)cc23)c1F [PLX-4720]
Assay: surviving fraction relative to DMSO-only wells; higher = less growth inhibition
Conditions: 0.5 nM; exposure time: 5 days
Procedure, shortened: (§1)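 Viability was determined by CellTiter-Glo luminescence, expressed as surviving fraction normalised to the median of DMSO-only wells. The cells were log-phase tumour cell lines seeded at 250–500 per well in 384-well plates and, after 24 hours, exposed continuously for five days to inhibitors at 0.5, 1, 5, 10, 50, 100, 500 and 1000 nM. Three screens per line were run, keeping only lines with replicate Pearson r >0.7 and median Z' >0.3.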

C33A CERVIX and CAL72 BONE are within error of each other in surviving fraction: 1.03 ± 0.18 for the first, 0.969 ± 0.041 for the second.

First: G292 BONE
Second: HCC1395 BREAST
The surviving fraction of the first is higher: 0.893 ± 0.022 for the first, 0.827 ± 0.0092 for the second.

Going from HUO3N1 BONE to LNCAP PROSTATE, the surviving fraction rises from 0.849 ± 0.014 to 1.17 ± 0.08.

Work on SCC003 HEADNECK yielded a surviving fraction of 0.76 ± 0.094.

Same assay, conditions: 1 nM; exposure time: 5 days

C33A CERVIX and CAL72 BONE are within error of each other in surviving fraction: 0.994 ± 0.044 for the first, 1.02 ± 0.036 for the second.

G292 BONE and HCC1395 BREAST are within error of each other in surviving fraction: 0.977 ± 0.042 for the first, 0.878 ± 0.15 for the second.

First: HUO3N1 BONE
Second: LNCAP PROSTATE
The surviving fraction of the first is lower: 0.886 ± 0.035 for the first, 1.08 ± 0.051 for the second.

SCC003 HEADNECK was tested, and the surviving fraction was 0.825 ± 0.065.

Same assay, conditions: 5 nM; exposure time: 5 days

Compared with C33A CERVIX, CAL72 BONE is lower in surviving fraction: 1.12 ± 0.14 for the first, 0.964 ± 0.015 for the second.

G292 BONE and HCC1395 BREAST are within error of each other in surviving fraction: 0.973 ± 0.039 for the first, 0.82 ± 0.15 for the second.

Compared with HUO3N1 BONE, LNCAP PROSTATE is higher in surviving fraction: 0.92 ± 0.055 for the first, 1.15 ± 0.097 for the second.

Work on SCC003 HEADNECK yielded a surviving fraction of 0.829 ± 0.14.

Same assay, conditions: 10 nM; exposure time: 5 days

First: C33A CERVIX
Second: CAL72 BONE
The surviving fraction of the first is higher: 1.13 ± 0.045 for the first, 1.03 ± 0.035 for the second.

Compared with G292 BONE, HCC1395 BREAST is lower in surviving fraction: 0.972 ± 0.043 for the first, 0.787 ± 0.06 for the second.

First: HUO3N1 BONE
Second: LNCAP PROSTATE
The surviving fraction of the first is lower: 0.913 ± 0.042 for the first, 1.12 ± 0.035 for the second.

In the case of SCC003 HEADNECK, the surviving fraction is reported as 0.81 ± 0.11.

Same assay, conditions: 50 nM; exposure time: 5 days

C33A CERVIX and CAL72 BONE are within error of each other in surviving fraction: 1.01 ± 0.17 for the first, 1.076 ± 0.006 for the second.

G292 BONE and HCC1395 BREAST are within error of each other in surviving fraction: 0.956 ± 0.024 for the first, 0.788 ± 0.17 for the second.

HUO3N1 BONE and LNCAP PROSTATE are within error of each other in surviving fraction: 0.989 ± 0.028 for the first, 0.892 ± 0.11 for the second.

SCC003 HEADNECK gave a surviving fraction of 0.983 ± 0.06.

Same assay, conditions: 100 nM; exposure time: 5 days

C33A CERVIX and CAL72 BONE are within error of each other in surviving fraction: 1.05 ± 0.13 for the first, 1.104 ± 0.011 for the second.

First: G292 BONE
Second: HCC1395 BREAST
The surviving fraction of the first is higher: 1.0012 ± 0.00029 for the first, 0.888 ± 0.042 for the second.

Going from HUO3N1 BONE to LNCAP PROSTATE, the surviving fraction falls from 1.02 ± 0.059 to 0.846 ± 0.011.

With SCC003 HEADNECK the surviving fraction was 1.02 ± 0.034.

Same assay, conditions: 500 nM; exposure time: 5 days

Compared with C33A CERVIX, CAL72 BONE is higher in surviving fraction: 0.946 ± 0.1 for the first, 1.09 ± 0.04 for the second.

First: G292 BONE
Second: HCC1395 BREAST
The surviving fraction of the first is higher: 0.979 ± 0.026 for the first, 0.824 ± 0.08 for the second.

HUO3N1 BONE and LNCAP PROSTATE are within error of each other in surviving fraction: 1.01 ± 0.063 for the first, 0.898 ± 0.09 for the second.

With SCC003 HEADNECK the surviving fraction was 1.01 ± 0.035.

Same assay, conditions: 1000 nM; exposure time: 5 days

C33A CERVIX and CAL72 BONE are within error of each other in surviving fraction: 1.06 ± 0.13 for the first, 1.08 ± 0.036 for the second.

G292 BONE and HCC1395 BREAST are within error of each other in surviving fraction: 0.973 ± 0.085 for the first, 0.927 ± 0.098 for the second.

HUO3N1 BONE and LNCAP PROSTATE are within error of each other in surviving fraction: 1.01 ± 0.067 for the first, 1.03 ± 0.12 for the second.

With SCC003 HEADNECK the surviving fraction was 1.02 ± 0.17.

Compound: COc1cc(CCc2cc(NC(=O)c3ccc(N4CC(C)NC(C)C4)cc3)n[nH]2)cc(OC)c1 [AZD4547]
Assay: as above
Conditions: 0.5 nM; exposure time: 5 days
Procedure, shortened: as §1

Going from C33A CERVIX to CAL72 BONE, the surviving fraction rises from 0.847 ± 0.084 to 1.08 ± 0.022.

G292 BONE and HCC1395 BREAST are within error of each other in surviving fraction: 0.93 ± 0.062 for the first, 0.849 ± 0.077 for the second.

HUO3N1 BONE and LNCAP PROSTATE are within error of each other in surviving fraction: 1.01 ± 0.05 for the first, 0.881 ± 0.092 for the second.

For SCC003 HEADNECK, the surviving fraction was 1.05 ± 0.091.

Same assay, conditions: 1 nM; exposure time: 5 days

Going from C33A CERVIX to CAL72 BONE, the surviving fraction rises from 0.948 ± 0.074 to 1.096 ± 0.0035.

G292 BONE and HCC1395 BREAST are within error of each other in surviving fraction: 0.917 ± 0.035 for the first, 0.904 ± 0.088 for the second.

HUO3N1 BONE and LNCAP PROSTATE are within error of each other in surviving fraction: 0.976 ± 0.015 for the first, 0.995 ± 0.12 for the second.

For SCC003 HEADNECK, the surviving fraction was 1.03 ± 0.014.

Same assay, conditions: 5 nM; exposure time: 5 days

First: C33A CERVIX
Second: CAL72 BONE
The surviving fraction of the first is lower: 0.96 ± 0.027 for the first, 1.05 ± 0.043 for the second.

G292 BONE and HCC1395 BREAST are within error of each other in surviving fraction: 0.801 ± 0.018 for the first, 0.849 ± 0.07 for the second.

Going from HUO3N1 BONE to LNCAP PROSTATE, the surviving fraction falls from 1.05 ± 0.059 to 0.861 ± 0.036.

SCC003 HEADNECK gave a surviving fraction of 1.13 ± 0.06.

Same assay, conditions: 10 nM; exposure time: 5 days

First: C33A CERVIX
Second: CAL72 BONE
The surviving fraction of the first is higher: 0.969 ± 0.099 for the first, 0.791 ± 0.067 for the second.

First: G292 BONE
Second: HCC1395 BREAST
The surviving fraction of the first is lower: 0.566 ± 0.0083 for the first, 0.748 ± 0.11 for the second.

Compared with HUO3N1 BONE, LNCAP PROSTATE is lower in surviving fraction: 0.95 ± 0.072 for the first, 0.829 ± 0.043 for the second.

SCC003 HEADNECK showed a surviving fraction of 1.1 ± 0.083.

Same assay, conditions: 50 nM; exposure time: 5 days

Compared with C33A CERVIX, CAL72 BONE is lower in surviving fraction: 0.915 ± 0.015 for the first, 0.331 ± 0.028 for the second.

First: G292 BONE
Second: HCC1395 BREAST
The surviving fraction of the first is lower: 0.207 ± 0.0036 for the first, 0.79 ± 0.072 for the second.

HUO3N1 BONE and LNCAP PROSTATE are within error of each other in surviving fraction: 0.85 ± 0.022 for the first, 0.821 ± 0.13 for the second.

SCC003 HEADNECK showed a surviving fraction of 1.07 ± 0.021.

Same assay, conditions: 100 nM; exposure time: 5 days

First: C33A CERVIX
Second: CAL72 BONE
The surviving fraction of the first is higher: 0.953 ± 0.1 for the first, 0.257 ± 0.013 for the second.

Compared with G292 BONE, HCC1395 BREAST is higher in surviving fraction: 0.173 ± 0.011 for the first, 0.804 ± 0.1 for the second.

First: HUO3N1 BONE
Second: LNCAP PROSTATE
The surviving fraction of the first is lower: 0.816 ± 0.018 for the first, 0.903 ± 0.037 for the second.

SCC003 HEADNECK gave a surviving fraction of 1.1 ± 0.065.

Same assay, conditions: 500 nM; exposure time: 5 days

Going from C33A CERVIX to CAL72 BONE, the surviving fraction falls from 0.811 ± 0.024 to 0.19 ± 0.031.

Compared with G292 BONE, HCC1395 BREAST is higher in surviving fraction: 0.138 ± 0.021 for the first, 0.698 ± 0.06 for the second.

HUO3N1 BONE and LNCAP PROSTATE are within error of each other in surviving fraction: 0.693 ± 0.04 for the first, 0.752 ± 0.11 for the second.

For SCC003 HEADNECK, the surviving fraction was 1.02 ± 0.088.

Same assay, conditions: 1000 nM; exposure time: 5 days

Compared with C33A CERVIX, CAL72 BONE is lower in surviving fraction: 0.75 ± 0.086 for the first, 0.158 ± 0.026 for the second.

Compared with G292 BONE, HCC1395 BREAST is higher in surviving fraction: 0.107 ± 0.0059 for the first, 0.762 ± 0.19 for the second.

HUO3N1 BONE and LNCAP PROSTATE are within error of each other in surviving fraction: 0.608 ± 0.018 for the first, 0.857 ± 0.25 for the second.

With SCC003 HEADNECK the surviving fraction was 0.996 ± 0.071.
